The molecules below were run on IL-1β production in PMA-differentiated THP-1 cells (assay: IL-1β production in PMA-differentiated THP-1 cells stimulated with gramicidin (hTHP-1 assay, 2% fetal bovine serum; Procedures 1-3)). Conditions: Homo sapiens, THP-1, Table B1; hTHP-1 assay containing 2% fetal bovine serum, gramicidin stimulation, IL-1β readout; read-out: hTHP-1 IC50 (average).
Format: cell-based, human
Method: The following protocol is suitable for testing the activity of the compounds disclosed herein.
Procedure 1: IL-1β Production in PMA-Differentiated THP-1 Cells Stimulated with Gramicidin.
THP-1 cells were purchased from the American Type Culture Collection and sub-cultured according to instructions from the supplier. Cells were cultured in complete RPMI 1640 (containing 10% heat inactivated FBS, penicillin (100 units/ml) and streptomycin (100 μg/ml)), and maintained in log phase prior to experimental setup. Prior to the experiment, compounds were dissolved in dimethyl sulfoxide (DMSO) to generate a 30 mM stock. The compound stock was first pre-diluted in DMSO to 3, 0.34, 0.042 and 0.0083 mM intermediate concentrations and subsequently spotted using Echo550 liquid handler into an empty 384-well assay plate to achieve desired final concentration (e.g. 100, 33, 11, 3.7, 1.2, 0.41, 0.14, 0.046, 0.015, 0.0051, 0.0017 μM). DMSO was backfilled in the plate to achieve a final DMSO assay concentration of 0.37%. The plate was then sealed and stored at room temperature until required.
THP-1 cells were treated with PMA (Phorbol 12-myristate 13-acetate) (20 ng/ml) for 16-18 hours. On the day of the experiment the media was removed and adherent cells were detached with trypsin for 5 minutes. Cells were then harvested, washed with complete RPMI 1640, spun down, and resuspended in RPMI 1640 (containing 2% heat inactivated FBS, penicillin (100 units/ml) and streptomycin (100 μg/ml). The cells were plated in the 384-well assay plate containing the spotted compounds at a density of 50,000 cells/well (final assay volume 50 μl). Cells were incubated with compounds for 1 hour and then stimulated with gramicidin (5 μM) (Enzo) for 2 hours. Plates were then centrifuged at 340 g for 5 min. Cell free supernatant (40 μL) was collected using a 96-channel PlateMaster (Gilson) and the production of IL-1β was evaluated by HTRF (cisbio). The plates were incubated for 18 h at 4° C. and read using the preset HTRF program (donor emission at 620 nm, acceptor emission at 668 nm) of the SpectraMax i3x spectrophotometer (Molecular Devices, software SoftMax 6). A vehicle only control and a dose titration of CRID3 (100-0.0017 μM) were run concurrently with each experiment.
Procedure 2: IL-1β Production in PMA-Differentiated THP-1 Cells Stimulated with Gramicidin.
THP-1 cells were purchased from the American Type Culture Collection and sub-cultured according to instructions from the supplier. Prior to experiments, cells were cultured in complete RPMI 1640 (containing 10% heat inactivated FBS, penicillin (100 units/ml) and streptomycin (100 μg/ml)), and maintained in log phase prior to experimental setup. Prior to the experiment THP-1 were treated with PMA (Phorbol 12-myristate 13-acetate) (20 ng/ml) for 16-18 hours. Compounds were dissolved in dimethyl sulfoxide (DMSO) to generate a 30 mM stock. On the day of the experiment the media was removed and adherent cells were detached with trypsin for 5 minutes. Cells were then harvested, washed with complete RPMI 1640, spun down, resuspended in RPMI 1640 (containing 2% heat inactivated FBS, penicillin (100 units/ml) and streptomycin (100 μg/ml) . The cells were plated in a 384-well plate at a density of 50,000 cells/well (final assay volume 50 μl). Compounds were first dissolved in assay medium to obtain a 5× top concentration of 500 μM. 10 step dilutions (1:3) were then undertaken in assay medium containing 1.67% DMSO. 5× compound solutions were added to the culture medium to achieve desired final concentration (e.g. 100, 33, 11, 3.7, 1.2, 0.41, 0.14, 0.046, 0.015, 0.0051, 0.0017 μM). Final DMSO concentration was at 0.37%. Cells were incubated with compounds for 1 hour and then stimulated with gramicidin (5 μM) (Enzo) for 2 hours. Plates were then centrifuged at 340 g for 5 min. Cell free supernatant (40 μL) was collected using a 96-channel PlateMaster (Gilson) and the production of IL-1β was evaluated by HTRF (cisbio). […]

Compound | IC50
Cc1oc(S(N)(=O)=NC(=O)Nc2c3c(cc4c2CCC4C)CCC3)cc1C(C)(C)O (single isomer, unassigned) [Example 125] | 40 to 200 nM
C#CCCC(=O)N(C)Cc1ccc(S(N)(=O)=NC(=O)Nc2c3c(cc4c2CCC4)CCC3)cc1 (single isomer, unassigned) [Example 312, (S) or (R)-N-(4-(N′-((1,2,3,5,6,7-hexahydro-s-indacen-4-yl)carbamoyl)-sulfamidimidoyl)benzyl)-N-methylpent-4-ynamide] | 1000 to 5000 nM
CC1CCc2c1cc1c(c2NC(=O)N=[S@@](N)(=O)c2cnc(C(C)(C)O)s2)CCC1 (single isomer, unassigned) [Example 323, (R, R) or (R, S)-2-(2-hydroxypropan-2-yl)-N′-((1-methyl-1,2,3,5,6,7-hexahydro-s-indacen-4-yl)carbamoyl)thiazole-5-sulfonimidamide] | 40 to 200 nM
CCc1ccc2cn(C)nc2c1NC(=O)N=S(N)(=O)c1ncc(C(C)(C)O)s1 (single isomer, unassigned) [Example 329, (S) or (R)-N′-((6-ethyl-2-methyl-2H-indazol-7-yl)-carbamoyl)-5-(2-hydroxy-propan-2-yl)thiazole-2-sulfonimidamide] | > 30000 nM

Further lines, results first:

IC50 | Compound
40 to 200 nM | C[C@@](O)(CO)c1cc(F)c([S@](N)(=O)=NC(=O)Nc2c3c(c(C#N)c4c2CCC4)CCC3)s1 (single isomer, unassigned) [Compound 411a]
40 to 200 nM | CNCc1cc(F)c(S(N)(=O)=NC(=O)Nc2c3c(cc4c2CCC4)CCC3)s1 (single isomer, unassigned) [Compound 412a]
40 to 200 nM | CN1CCc2cc(S(N)(=O)=NC(=O)Nc3c4c(cc5c3CCC5)CCC4)sc2C1 (single isomer, unassigned) [Compound 413a]
200 to 1000 nM | Cc1oc(S(N)(=O)=NC(=O)Nc2c3c(cc4c2CCC4)CCC3)cc1C(C)(C)O (single isomer, unassigned) [Example 3]

Same assay, conditions: Homo sapiens, THP-1, Table B3; hTHP-1 assay containing 2% fetal bovine serum, gramicidin stimulation, IL-1β readout; read-out: hTHP-1 IC50

IC50 | Compound
200 to 1000 nM | C[C@](O)(COCCOCc1ccccc1)c1ccc([S@@](N)(=O)=NC(=O)Nc2c3c(cc4c2CCC4)CCC3)s1 (racemic) [Example 746, (S)-5-((S)-1-(2-(benzyloxy)ethoxy)-2-hydroxypropan-2-yl)-N′-((1,2,3,5,6,7-hexahydro-s-indacen-4-yl)carbamoyl)thiophene-2-sulfonimidamide]
200 to 1000 nM | C[C@](O)(COCCOCc1ccccc1)c1ccc(S(N)(=O)=NC(=O)Nc2c3c(cc4c2CCC4)CCC3)s1 (mixture of isomers) [Example 747, (S) and (R)-5-((S)-1-(2-(benzyloxy)ethoxy)-2-hydroxypropan-2-yl)-N′-((1,2,3,5,6,7-hexahydro-s-indacen-4-yl)carbamoyl)thiophene-2-sulfonimidamide]

Same assay, conditions: Homo sapiens, THP-1, hTHP-1 assay containing 2% fetal bovine serum, Table B2, given as bound; read-out: IC50

IC50 | Compound
> 30000 nM | CC(OC(F)F)c1ccc(S(N)(=O)=NC(=O)Nc2c3c(cc4c2CCC4)CCC3)cc1 (mixture of isomers) [Example 639, (R,S) and (S,S)-4-(1-(difluoromethoxy)ethyl)-N′-((1,2,3,5,6,7-hexahydro-s-indacen-4-yl)carbamoyl) benzenesulfonimidamide (mixture of two isomers)]

Same assay, conditions: Table B1; hTHP-1 assay containing 2% fetal bovine serum, gramicidin stimulation, IL-1β readout; read-out: hTHP-1 IC50 (average)

Compound | IC50
CC(C)(O)c1csc(S(N)(=O)=NC(=O)Nc2c3c(c(Cl)c4c2CCC4)CCC3)c1 (single isomer, unassigned) [Example 89] | 8 to 40 nM
CC(C)c1cc(C#N)c(F)c(C(C)C)c1NC(=O)N=S(N)(=O)c1cnc(C(C)(C)O)s1 (single isomer, unassigned) [Example 91] | 40 to 200 nM
CNS(=O)(=NC(=O)Nc1c2c(c(F)c3c1CCC3)CCC2)c1cc(C(C)(C)O)cs1 (single isomer, unassigned) [Example 181] | 5000 to 30000 nM
CC(C)c1cc(C#N)cc(C(C)C)c1NC(=O)N=S(N)(=O)c1cc(C(C)(C)O)cc(C(C)(C)O)c1 (single isomer, unassigned) [Example 198, N′-((4-cyano-2,6-diisopropylphenyl)carbamoyl)-3,5-bis(2-hydroxypropan-2-yl)benzenesulfonimidamide] | 5000 to 30000 nM
C#CCCC(=O)N(C)Cc1ccc(S(N)(=O)=NC(=O)Nc2c3c(cc4c2CCC4)CCC3)cc1 (single isomer, unassigned) [Example 313, (R) or (S)-N-(4-(N′-((1,2,3,5,6,7-hexahydro-s-indacen-4-yl)carbamoyl)-sulfamidimidoyl)benzyl)-N-methylpent-4-ynamide] | 1000 to 5000 nM
CCc1ccc2cn(C)nc2c1NC(=O)N=S(N)(=O)c1ncc(C(C)(C)O)s1 (single isomer, unassigned) [Example 330, (R) or (S)-N′-((6-ethyl-2-methyl-2H-indazol-7-yl)-carbamoyl)-5-(2-hydroxy-propan-2-yl)thiazole-2-sulfonimidamide] | > 30000 nM
CC(C)(O)c1ncc(S(N)(=O)=NC(=O)Nc2c3c(cc4c2CCC4=O)CCC3)s1 (single isomer, unassigned) [Example 336, (R) or (S)-2-(2-Hydroxy-propan-2-yl)-N′-((1-oxo-1,2,3,5,6,7-hexahydro-s-indacen-4-yl)carbamoyl)-thiazole-5-sulfonimidamide] | 200 to 1000 nM
CC(C)(O)c1ncc(S(N)(=O)=NC(=O)Nc2c3c(cc4c2CCC4O)CCC3)s1 (single isomer, unassigned) [Example 338, (R, S) or (R, R)-N′-((1-hydroxy-1,2,3,5,6,7-hexa-hydro-s-indacen-4-yl)-carbamoyl)-2-(2-hydroxy-propan-2-yl)thiazole-5-sulfonimidamide] | 1000 to 5000 nM

More lines, now with the values ahead:

IC50 | Compound
200 to 1000 nM | CC(C)(O)c1ncc(S(N)(=O)=NC(=O)Nc2c3c(cc4c2CCC4)CCC3)s1 (single isomer, unassigned) [Example 5]
8 to 40 nM | CC(C)(O)c1ncc(S(N)(=O)=NC(=O)Nc2c3c(cc4c2CCC4)CCC3)s1 (single isomer, unassigned) [Example 6]
40 to 200 nM | CC(C)(O)c1ccc(S(N)(=O)=NC(=O)Nc2c3c(cc4c2CCC4)CCC3)c(F)c1 (single isomer, unassigned) [Example 87]
40 to 200 nM | CC(C)n1ccc(S(N)(=O)=NC(=O)Nc2c3c(cc4c2CCC4)CCC3)n1 (single isomer, unassigned) [Example 93]

Same assay, conditions: hTHP-1 assay containing 2% fetal bovine serum, Table B2, class symbols; read-out: IC50

IC50 | Compound
5000 to 30000 nM | CC(O)(CO)c1ncc(S(N)(=O)=NC(=O)Nc2c3c(c(C#N)c4c2CCC4)CCC3)s1 (mixture of isomers) [Example 635, (R,S) and (S,S)-N′-((8-cyano-1,2,3,5,6,7-hexahydro-indacen-4-yl)carbamoyl)-2-(1,2-dihydroxypropan-2-yl)thiazole-5-sulfonimidamide (mixture of two isomers)]
5000 to 30000 nM | NS(=O)(=NC(=O)Nc1c2c(cc3c1CCC3)CCC2)c1ccc(C2CCCN2)cc1 (mixture of isomers) [Example 649, (S,R) or (R,R) and (S,S) or (R,S)-N′-((1,2,3,5,6,7-hexahydro-s-indacen-4-yl)carbamoyl)-4-(pyrrolidin-2-yl) benzenesulfonimidamide (mixture of two isomers)]

From patent US20230051589A1, “COMPOUNDS AND COMPOSITIONS FOR TREATING CONDITIONS ASSOCIATED WITH NLRP ACTIVITY” (Novartis AG, priority 2018, published 2023)
